Measurements as given in paper PMC9181926, “Synthesis and Antiproliferative Activity of Novel Dehydroabietic Acid-Chalcone Hybrids” (Molecules, 2022).

Legend:
[1] = test system: MDA-MB-231 cells; assay: Antiproliferation assay (cell counting, 48 h) in MDA-MB-231 breast cancer cells; format: cell-based, human; details: for IC50: MDA-MB-231 cells, 48 h incubation, cell counting; for Selectivity Index for MDA-MB-231: FB IC50 relative to MDA-MB-231 IC50
Excerpt: (§1) Regarding the different characteristics of the used breast cancer cell lines, we can notice that MDA-MB-231 and Hs578T are triple negative.
(§2) Primary skin normal fibroblasts were kindly provided by Prof. Emer.

[2] = test system: MCF-7 cells; assay: Antiproliferation assay (cell counting, 48 h) in MCF-7 breast cancer cells; format: cell-based, human; details: for IC50: MCF-7 cells, 48 h incubation, cell counting; for Selectivity Index for MCF-7: FB IC50 relative to MCF-7 IC50
Excerpt: as §1, §2

[3] = test system: Hs578T cells; assay: Antiproliferation assay (cell counting, 48 h) in Hs578T breast cancer cells; format: cell-based, human; details: for IC50: Hs578T cells, 48 h incubation, cell counting; for Selectivity Index for Hs578T: FB IC50 relative to Hs578T IC50
Excerpt: as §1, §2

[4] = test system: normal primary fibroblasts (FB); assay: cells; format: cell-based, human; details: normal primary human fibroblasts, 48 h incubation, cell counting
Excerpt: as §2

[5] = test system: MDA-MB-231, MCF-7 and Hs578T breast cancer cell lines
Protocol: (§3) The antiproliferative activity of the synthesized DHA-chalcone hybrids 31–53 was evaluated using three characteristic breast carcinoma cell lines, MDA-MB-231, MCF-7, and Hs578T. For the sake of comparison, 5-FU, a widely used drug in clinical practice, was selected as positive control.
(§4) MCF-7 (ER-positive breast cancer cells, epithelial, low metastatic), MDA-MB-231, and Hs578T (triple negative breast cancer cells, mesenchymal, high metastatic) were obtained from American Type Culture Collection (ATCC) and cultured with DMEM high glucose/10% Fetal Bovine Serum (FBS) (supplied by Biosera). […] Cancer cells were seeded in 24 well plates (30,000 MCF-7 cells/well, 30.000 MDA-MB-231 cells/well, 25,000 Hs578T cells/well) and fibroblasts in 12 well plates (40,000 cells/well) and incubated in proper medium completed with 10% FBS for 48 h. Compounds were diluted in DMSO and working dilutions were prepared ranging from 5 to 200 μΜ for cancer cells and 1 to 100 μM for fibroblasts. All cells were incubated with working dilutions for 48 h. Afterwards, cells were detached by trypsinization, centrifuged at 3000 rpm for 3 min, and counted using a hemocytometer. Antiproliferation values were then calculated relatively to cancer or normal cells treated only with DMSO. […] IC50 values were calculated using GraphPad Prism 5 (Graph Pad Software).

[6] = test system: MDA-MB-231, MCF-7 and Hs578T breast cancer cell lines; assay: cells; details: Homo sapiens, read-out: IC50 against all the cancer cell lines
Protocol: as §3, §4

(1R,4aS)-methyl 6-hydroxy-1,4a-dimethyl-7-((E)-3-oxo-3-(pyridin-3-yl)prop-1-en-1-yl)-1,2,3,4,4a,9,10,10a-octahydrophenanthrene-1-carboxylate [Compound 50]
IC50 [1]: > 75 µM | IC50 [2]: > 75 µM | IC50 [3]: > 75 µM | IC50 [4]: 192 ± 51.4 µM

COC(=O)[C@]1(C)CCC[C@]2(C)c3cc(O)c(C(=O)/C=C/c4ccsc4)cc3CCC12 (stereo partly drawn) [Compound 44, (1R,4aS)-methyl 6-hydroxy-1,4a-dimethyl-7-((E)-3-(thiophen-3-yl)acryloyl)-1,2,3,4,4a,9,10,10a-octahydrophenanthrene-1-carboxylate]
Selectivity Index for MDA-MB-231 [1]: 1.75 | IC50 ([1]; Homo sapiens): 25.2 ± 0.84 µM | Selectivity Index for MCF-7 [2]: 12.76 | IC50 ([2]; Homo sapiens, MCF7): 3.45 ± 0.36 µM | Selectivity Index for Hs578T [3]: 2.05 | IC50 ([3]; Homo sapiens, Hs-578T): 21.5 ± 1.2 µM | IC50 ([4]; Fibroblast): 44 ± 1.84 µM

(1R,4aS)-methyl 7-((E)-3-(2-chloroquinolin-4-yl)acryloyl)-6-hydroxy-1,4a-dimethyl-1,2,3,4, 4a,9,10,10a-octahydrophenanthrene-1-carboxylate [Compound 41]
IC50 [1]: 7.12 ± 0.2 µM | IC50 [2]: 3.99 ± 0.15 µM | IC50 [3]: 10.3 ± 0.25 µM | IC50 [4]: 7.96 ± 0.1 µM

(1R,4aS)-methyl 7-((E)-3-(1H-pyrrol-3-yl)acryloyl)-6-hydroxy-1,4a-dimethyl-1,2,3,4, 4a,9,10,10a-octahydrophenanthrene-1-carboxylate [Compound 43]
IC50 [1]: 29.2 ± 3.26 µM | IC50 [2]: 4.29 ± 0.29 µM | IC50 [3]: 16.6 ± 2.83 µM | IC50 [4]: 33 ± 6.1 µM

COC(=O)[C@]1(C)CCC[C@]2(C)c3cc(O)c(/C=C/C(=O)c4cnccn4)cc3CCC12 (stereo partly drawn) [Compound 51, (1R,4aS)-methyl 6-hydroxy-1,4a-dimethyl-7-((E)-3-oxo-3-(pyrazin-2-yl)prop-1-en-1-yl)-1,2,3,4,4a,9,10,10a-octahydrophenanthrene-1-carboxylate]
Selectivity Index for MDA-MB-231 [1]: 1.14 | IC50 ([1]; Homo sapiens): 18 ± 2.78 µM | IC50 ([2]; Homo sapiens, MCF7): > 75 µM | Selectivity Index for Hs578T [3]: 0.88 | IC50 ([3]; Homo sapiens, Hs-578T): 23.11 ± 0.04 µM | IC50 ([4]; Fibroblast): 20.5 ± 2.46 µM

COC(=O)[C@]1(C)CCC[C@]2(C)c3cc(O)c(C(=O)/C=C/c4cccnc4)cc3CCC12 (stereo partly drawn) [Compound 33, (1R,4aS)-methyl 6-hydroxy-1,4a-dimethyl-7-((E)-3-(pyridin-3-yl)acryloyl)-1,2,3,4,4a, 9,10,10a-octahydrophenanthrene-1-carboxylate]
Selectivity Index for MDA-MB-231 [1]: 1.47 | IC50 ([1]; Homo sapiens): 5.89 ± 0.77 µM | Selectivity Index for MCF-7 [2]: 3.93 | IC50 ([2]; Homo sapiens, MCF7): 2.21 ± 0.4 µM | Selectivity Index for Hs578T [3]: 3.50 | IC50 ([3]; Homo sapiens, Hs-578T): 2.48 ± 0.13 µM | IC50 ([4]; Fibroblast): 8.68 ± 0.88 µM | times less toxic than 5-FU (selectivity indices) [5]: 2.2-3 times | times more active than 5-FU [5]: 2.4-3.3 times | IC50 [6]: 2.21 to 5.89 µM
